# Reference: patent publication US12138256B2, “Treatment of cardiopulmonary disorders” (Bayer Aktiengesellschaft, priority 2021, dated 2024)
# Test system: pulmonary vascular resistance (PVR)
# Assay: Phase 1b, patients with PAH or CTEPH, inhaled single doses, right heart catheterization: PVR and mPAP (C-4.4)
# Format: in vivo, human
# Description: Patients with PAH or CTEPH were treated in a clinical phase 1b study with escalating orally inhaled single* doses of 240 μg (2 capsules of 120 μg), 480 μg, 1000 μg, 2000 (2 capsules of 1000 μg) or 4000 μg (4 capsules of 1000 μg) of a dry powder of example 4 (see under D-1, e.g. tables 17 and 20), inserted into a handheld inhalation device, inhaled by deep inhalative breath into the deep parts of the lung. (*single dose means the administration of one dosage form/capsule as well as administration of two or more dosage forms/capsules simultaneously or consecutively within a short time period). The included patients had no background treatment with standard of care (SoC) medication for PAH or CTEPH (such as endothelin antagonists, prostanoids, phosphodiesterase type 5 inhibitor or soluble guanylate cyclase stimulators). Patients in this study underwent invasive right heart catheterization as medically indicated routine diagnostic. Primary objective of the study was to investigate the peak percent reduction from baseline in PVR. Patients had to have a baseline pulmonary artery pressure (mPAP) of ≥25 mmHg and a PVR of ≥400 dyn·sec·cm^−5 (5 Wood Units) and were not to show vaso-responsiveness to initial iNO inhalation testing to be included in the per protocol analysis. Plasma concentrations (pharmacokinetics) of the administered drug at several time points after administration were measured and safety and tolerability was assessed.
# The study is divided into two parts, Part A and Part B. In Part A escalating aforementioned single doses were administered to patients without background treatment with standard of care (SoC) medication for PAH or CTEPH (such as endothelin antagonists, prostanoids, phosphodiesterase type 5 inhibitor or soluble guanylate cyclase stimulators). In Part B, after finalization of Part A, a selected dose from PartA will be tested in further patients without background SoC treatment (group 1) and additionally in patients on monotherapy with SoC (group 2) and on dual combination therapy with SoC (group 3).
# The PVR is a derived parameter from parameters directly measured during the right heart catheterization procedure. The direct parameters included in the calculation are: mean pulmonary arterial pressure [mmHg](mPAP), pulmonary capillary wedge pressure [mmHg] (PCWP), and cardiac output [l/min] (CO). The PVR is calculated according to the formula: PVR [dyn*see*cm^−5]=80*(mPAP-PCWP)/CO.
# Overall 38 patients received a dose of dry powder of example 4. A total of 4 patients in each dose group were included into the per protocol set as planned (total 20 patients). A dose-dependent mean change of PVR from baseline could be clearly observed peaking in an enduring mean change of approximately −30% in the 2000 μg and 4000 μg groups (for details of PVR see FIG. 82 and table C4.4.1). The decreases in PVR were predominantly driven by decreases in pulmonary arterial pressure (for details of mean PAP see FIG. 83 and table C4.4.2). A mean peak change level of −20%—as the predefined relevant threshold level—was clearly exceeded peaking in the 2000 μg and 4000 μg groups (mean peak changes were: −21.0%, −16.1%, −25.9%, −38.1%, −36.3% for 240, 480, 1000, 2000, and 4000 μg, respectively). The magnitude of mean change in PVR of −30% from baseline was at the same level as for the inhaled competitor Treprostinil (Tyvaso®) after single administration in a historical comparison [Voswinckel et al, Journal of American College of Cardiology Vol. 48, No. 8, 2006 Oct. 17, 2006:1672-81]. However, the effect after example 4 application was advantageously sustained with no decrease in response until the end of the measurement period of 3 h (a measurement period of >3 h was technically not feasible for the patients with right heart catheter in the study). […] Increase of systemic cGMP (cyclic Guanosine Monophosphate) confirmed strong target engagement of sGC activation. […]
# [1] = 240 μg, 0 D 00 H 00 M (baseline)
# [2] = 480 μg, 0 D 00 H 00 M (baseline)
# [3] = 1000 μg, 0 D 00 H 00 M (baseline)
# [4] = 2000 μg, 0 D 00 H 00 M (baseline)
# [5] = 4000 μg, 0 D 00 H 00 M (baseline)
smiles,measurement,setting,value
"O=C(O)c1ccc(CCN(CCc2ccccc2OCc2ccc(-c3ccc(C(F)(F)F)cc3)cc2Cl)[C@H]2CCCc3nc(C(=O)O)ccc32)cc1 [example 4, (5S)-{[2-(4-Carboxyphenyl)ethyl][2-(2-{[3-chloro-4′-(trifluoromethyl)biphenyl-4-yl]methoxy}phenyl)-ethyl]amino}-5,6,7,8-tetrahydroquinoline-2-carboxylic acid]",mean peak change of PVR from baseline,240 μg,−21.0%
same,"mean pulmonary arterial pressure (mPAP), mean ± SD",[1],42.8 ± 11.1 mmHg
same,"pulmonary vascular resistance (PVR), mean ± SD",[1],788.338 ± 416.914 dyn·sec·cm^−5
same,"mean pulmonary arterial pressure (mPAP), mean ± SD","240 μg, 0 D 00 H 30 M",42.5 ± 11.0 mmHg
same,"pulmonary vascular resistance (PVR), mean ± SD","240 μg, 0 D 00 H 30 M",749.012 ± 398.928 dyn·sec·cm^−5
same,"mean pulmonary arterial pressure (mPAP), mean ± SD","240 μg, 0 D 01 H 00 M",44.3 ± 10.4 mmHg
same,"pulmonary vascular resistance (PVR), mean ± SD","240 μg, 0 D 01 H 00 M",734.427 ± 396.799 dyn·sec·cm^−5
same,"mean pulmonary arterial pressure (mPAP), mean ± SD","240 μg, 0 D 01 H 30 M",43.0 ± 8.0 mmHg
same,"pulmonary vascular resistance (PVR), mean ± SD","240 μg, 0 D 01 H 30 M",726.362 ± 364.099 dyn·sec·cm^−5
same,"mean pulmonary arterial pressure (mPAP), mean ± SD","240 μg, 0 D 02 H 00 M",39.5 ± 7.9 mmHg
same,"pulmonary vascular resistance (PVR), mean ± SD","240 μg, 0 D 02 H 00 M",710.844 ± 410.668 dyn·sec·cm^−5
same,"mean pulmonary arterial pressure (mPAP), mean ± SD","240 μg, 0 D 02 H 30 M",42.0 ± 6.5 mmHg
same,"pulmonary vascular resistance (PVR), mean ± SD","240 μg, 0 D 02 H 30 M",716.209 ± 419.311 dyn·sec·cm^−5
same,"mean pulmonary arterial pressure (mPAP), mean ± SD","240 μg, 0 D 03 H 00 M",39.0 ± 4.2 mmHg
same,"pulmonary vascular resistance (PVR), mean ± SD","240 μg, 0 D 03 H 00 M",657.829 ± 291.191 dyn·sec·cm^−5
same,mean peak change of PVR from baseline,480 μg,−16.1%
same,"mean pulmonary arterial pressure (mPAP), mean ± SD",[2],55.0 ± 8.6 mmHg
same,"pulmonary vascular resistance (PVR), mean ± SD",[2],1055.863 ± 317.077 dyn·sec·cm^−5
same,"mean pulmonary arterial pressure (mPAP), mean ± SD","480 μg, 0 D 00 H 30 M",52.3 ± 8.4 mmHg
same,"pulmonary vascular resistance (PVR), mean ± SD","480 μg, 0 D 00 H 30 M",1003.264 ± 300.639 dyn·sec·cm^−5
same,"mean pulmonary arterial pressure (mPAP), mean ± SD","480 μg, 0 D 01 H 00 M",53.8 ± 9.1 mmHg
same,"pulmonary vascular resistance (PVR), mean ± SD","480 μg, 0 D 01 H 00 M",1007.504 ± 290.883 dyn·sec·cm^−5
same,"mean pulmonary arterial pressure (mPAP), mean ± SD","480 μg, 0 D 01 H 30 M",55.0 ± 8.0 mmHg
same,"pulmonary vascular resistance (PVR), mean ± SD","480 μg, 0 D 01 H 30 M",1031.647 ± 252.210 dyn·sec·cm^−5
same,"mean pulmonary arterial pressure (mPAP), mean ± SD","480 μg, 0 D 02 H 00 M",52.5 ± 7.9 mmHg
same,"pulmonary vascular resistance (PVR), mean ± SD","480 μg, 0 D 02 H 00 M",908.704 ± 252.569 dyn·sec·cm^−5
same,"mean pulmonary arterial pressure (mPAP), mean ± SD","480 μg, 0 D 02 H 30 M",54.0 ± 9.7 mmHg
same,"pulmonary vascular resistance (PVR), mean ± SD","480 μg, 0 D 02 H 30 M",1038.344 ± 263.837 dyn·sec·cm^−5
same,"mean pulmonary arterial pressure (mPAP), mean ± SD","480 μg, 0 D 03 H 00 M",56.0 ± 11.1 mmHg
same,"pulmonary vascular resistance (PVR), mean ± SD","480 μg, 0 D 03 H 00 M",909.265 ± 259.510 dyn·sec·cm^−5
same,mean peak change of PVR from baseline,1000 μg,−25.9%
same,"mean pulmonary arterial pressure (mPAP), mean ± SD",[3],34.3 ± 4.9 mmHg
same,"pulmonary vascular resistance (PVR), mean ± SD",[3],608.898 ± 135.153 dyn·sec·cm^−5
same,"mean pulmonary arterial pressure (mPAP), mean ± SD","1000 μg, 0 D 00 H 30 M",33.8 ± 7.5 mmHg
same,"pulmonary vascular resistance (PVR), mean ± SD","1000 μg, 0 D 00 H 30 M",645.387 ± 211.946 dyn·sec·cm^−5
same,"mean pulmonary arterial pressure (mPAP), mean ± SD","1000 μg, 0 D 01 H 00 M",31.8 ± 7.4 mmHg
same,"pulmonary vascular resistance (PVR), mean ± SD","1000 μg, 0 D 01 H 00 M",558.324 ± 169.860 dyn·sec·cm^−5
same,"mean pulmonary arterial pressure (mPAP), mean ± SD","1000 μg, 0 D 01 H […]",32.0 ± 8.9 mmHg
same,"pulmonary vascular resistance (PVR), mean ± SD","1000 μg, 0 D 01 H […]",542.130 ± 187.227 dyn·sec·cm^−5
same,"mean pulmonary arterial pressure (mPAP), mean ± SD","1000 μg, 0 D 02 H 00 M",32.3 ± 9.0 mmHg
same,"pulmonary vascular resistance (PVR), mean ± SD","1000 μg, 0 D 02 H 00 M",487.951 ± 144.546 dyn·sec·cm^−5
same,"mean pulmonary arterial pressure (mPAP), mean ± SD","1000 μg, 0 D 02 H […]",33.5 ± 10.7 mmHg
same,"pulmonary vascular resistance (PVR), mean ± SD","1000 μg, 0 D 02 H […]",537.812 ± 204.640 dyn·sec·cm^−5
same,"pulmonary vascular resistance (PVR), mean ± SD","1000 μg, 0 D 03 H 00 M",535.636 ± 235.786 dyn·sec·cm^−5
same,mean peak change of PVR from baseline,2000 μg,−38.1%
same,mean change of PVR from baseline,"2000 μg and 4000 μg groups, single inhaled dose, per protocol set N=4 each",approximately −30%
same,"mean pulmonary arterial pressure (mPAP), mean ± SD",[4],33.5 ± 3.4 mmHg
same,"pulmonary vascular resistance (PVR), mean ± SD",[4],468.608 ± 20.537 dyn·sec·cm^−5
same,"mean pulmonary arterial pressure (mPAP), mean ± SD","2000 μg, 0 D 00 H 30 M",33.3 ± 6.3 mmHg
same,"pulmonary vascular resistance (PVR), mean ± SD","2000 μg, 0 D 00 H 30 M",464.586 ± 58.200 dyn·sec·cm^−5
same,"mean pulmonary arterial pressure (mPAP), mean ± SD","2000 μg, 0 D 01 H 00 M",30.8 ± 5.6 mmHg
same,"pulmonary vascular resistance (PVR), mean ± SD","2000 μg, 0 D 01 H 00 M",421.730 ± 81.602 dyn·sec·cm^−5
same,"mean pulmonary arterial pressure (mPAP), mean ± SD","2000 μg, 0 D 01 H 30 M",28.5 ± 7.3 mmHg
same,"pulmonary vascular resistance (PVR), mean ± SD","2000 μg, 0 D 01 H 30 M",340.782 ± 82.566 dyn·sec·cm^−5
same,"mean pulmonary arterial pressure (mPAP), mean ± SD","2000 μg, 0 D 02 H 00 M",27.0 ± 6.1 mmHg
same,"pulmonary vascular resistance (PVR), mean ± SD","2000 μg, 0 D 02 H 00 M",339.924 ± 105.884 dyn·sec·cm^−5
same,"mean pulmonary arterial pressure (mPAP), mean ± SD","2000 μg, 0 D 02 H 30 M",27.3 ± 6.0 mmHg
same,"pulmonary vascular resistance (PVR), mean ± SD","2000 μg, 0 D 02 H 30 M",338.404 ± 87.381 dyn·sec·cm^−5
same,"mean pulmonary arterial pressure (mPAP), mean ± SD","2000 μg, 0 D 03 H 00 M",27.5 ± 5.2 mmHg
same,"pulmonary vascular resistance (PVR), mean ± SD","2000 μg, 0 D 03 H 00 M",327.284 ± 25.882 dyn·sec·cm^−5
same,mean peak change of PVR from baseline,4000 μg,−36.3%
same,"mean pulmonary arterial pressure (mPAP), mean ± SD",[5],46.0 ± 8.1 mmHg
same,"pulmonary vascular resistance (PVR), mean ± SD",[5],713.998 ± 117.204 dyn·sec·cm^−5
same,"mean pulmonary arterial pressure (mPAP), mean ± SD","4000 μg, 0 D 00 H 30 M",43.0 ± 4.6 mmHg
same,"pulmonary vascular resistance (PVR), mean ± SD","4000 μg, 0 D 00 H 30 M",616.894 ± 97.774 dyn·sec·cm^−5
same,"mean pulmonary arterial pressure (mPAP), mean ± SD","4000 μg, 0 D 01 H 00 M",41.3 ± 4.6 mmHg
same,"pulmonary vascular resistance (PVR), mean ± SD","4000 μg, 0 D 01 H 00 M",542.417 ± 97.103 dyn·sec·cm^−5
same,"mean pulmonary arterial pressure (mPAP), mean ± SD","4000 μg, 0 D 01 H 30 M",40.3 ± 5.1 mmHg
same,"pulmonary vascular resistance (PVR), mean ± SD","4000 μg, 0 D 01 H 30 M",573.812 ± 123.865 dyn·sec·cm^−5
same,"mean pulmonary arterial pressure (mPAP), mean ± SD","4000 μg, 0 D 02 H 00 M",40.0 ± 5.3 mmHg
same,"pulmonary vascular resistance (PVR), mean ± SD","4000 μg, 0 D 02 H 00 M",501.07 ± 97.979 dyn·sec·cm^−5
same,"mean pulmonary arterial pressure (mPAP), mean ± SD","4000 μg, 0 D 02 H […]",39.8 ± 3.0 mmHg
same,"pulmonary vascular resistance (PVR), mean ± SD","4000 μg, 0 D 02 H […]",526.648 ± 144.679 dyn·sec·cm^−5
same,"mean pulmonary arterial pressure (mPAP), mean ± SD","4000 μg, 0 D 03 H 00 M",39.8 ± 4.1 mmHg
same,"pulmonary vascular resistance (PVR), mean ± SD","4000 μg, 0 D 03 H 00 M",493.103 ± 130.480 dyn·sec·cm^−5
same,duration of sustained PVR effect with no decrease in response,end of the measurement period,≥ 3 h
same,tolerability,single inhaled doses 240 to 4000 μg,Overall good tolerability was seen including the highest dose of 4000 μg
